The values below come from patent publication US9296734B2 (AMGEN INC., priority 2013, dated 2016).

The term IC50 denotes the concentration at which inhibition is half-maximal.

The structures appear in SMILES notation.

Sequence of Cathepsin D (Cat D) (P07339 65-412, species assumed): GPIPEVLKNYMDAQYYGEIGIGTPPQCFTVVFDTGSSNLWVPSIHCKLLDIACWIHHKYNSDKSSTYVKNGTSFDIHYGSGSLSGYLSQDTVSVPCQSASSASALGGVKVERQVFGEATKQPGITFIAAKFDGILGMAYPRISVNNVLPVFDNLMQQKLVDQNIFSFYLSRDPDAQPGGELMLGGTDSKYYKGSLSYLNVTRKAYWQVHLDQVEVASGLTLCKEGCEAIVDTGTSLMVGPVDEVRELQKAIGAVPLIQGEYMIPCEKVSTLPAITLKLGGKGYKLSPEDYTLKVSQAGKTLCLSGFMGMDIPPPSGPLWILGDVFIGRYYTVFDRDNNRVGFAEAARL

The first assay deals with Cathepsin D (Cat D) (Homo sapiens (Human), UniProt P07339). The experiment in a line: In vitro enzymatic Cathepsin D (Cat D) FRET assay. The assay is classed as biochemical. The note with it: average IC50, cathepsin D enzyme assay; read-out: CatD IC50. The procedure:
In Vitro Enzymatic Cathepsin D (Cat D) FRET (Fluorescence Resonance Energy Transfer) Assay
Recombinant Cat D was expressed in CHO cells. The assay buffer for CathepsinD is 0.05 M citrate pH 3.5, 10% DMSO final, 5 mM CHAPS. […] The assays are effectively started by the addition of different FRET substrates (20 nM for Cat D) and the combination is incubated for one hour. The FRET assay is terminated with by addition of Tris buffer, which raises the pH to neutrality, and the fluorescence is determined. The FRET substrate is a peptide with commercially available fluorophore and quencher, on opposite sides of the BACE cleavage site. […] Proteolytic cleavage of the FRET substrate releases quenching of fluorescence (Cat D excitation 500 nm and emission 580 nm).
In addition, the cathepsin D and cathepsin E assays are described in PCT publication WO2011069934.
Regarding `COc1ccc(C(=O)Nc2cnc(F)c([C@]3(C)C[C@@H](C(F)(F)F)OC(N)=N3)c2)nc1` [Example 63, N-(5-((4S,6S)-2-amino-4-methyl-6-(trifluoromethyl)-5,6-dihydro-4H-1,3-oxazin-4-yl)-6-fluoropyridin-3-yl)-5-methoxypicolinamide], the IC50 was more than 400 µM.

Regarding `COc1cnc(C(=O)Nc2cnc(F)c([C@]3(C)C[C@@H](C(F)(F)F)OC(N)=N3)c2)cn1` [Example 70, N-(5-((4S,6S)-2-amino-4-methyl-6-(trifluoromethyl)-5,6-dihydro-4H-1,3-oxazin-4-yl)-6-fluoropyridin-3-yl)-5-methoxypyrazine-2-carboxamide], the IC50 stood at 397 µM.

Turning to `COc1cnc(C(=O)Nc2ccc(F)c([C@]3(C)C[C@@H](C(F)(F)F)OC(N)=N3)n2)c(Cl)c1` [Example 80, N-(6-((4S,6S)-2-amino-4-methyl-6-(trifluoromethyl)-5,6-dihydro-4H-1,3-oxazin-4-yl)-5-fluoropyridin-2-yl)-3-chloro-5-methoxypicolinamide], the IC50 stood at 658 µM.

For `NC1=N[C@](CF)(c2cc(Oc3ccccn3)ccc2F)C[C@@H](C(F)(F)F)O1` [Example 101, (4S,6S)-4-(2-fluoro-5-(pyridin-2-yloxy)phenyl)-4-(fluoromethyl)-6-(trifluoromethyl)-5,6-dihydro-4H-1,3-oxazin-2-amine], the IC50 was more than 400 µM.

As to `CC#Cc1cncc(-c2ccc(F)c([C@]3(CF)C[C@@H](C(F)(F)F)OC(N)=N3)c2)c1` [Example 104, (4S,6S)-4-(2-fluoro-5-(5-(prop-1-yn-1-yl)pyridin-3-yl)phenyl)-4-(fluoromethyl)-6-(trifluoromethyl)-5,6-dihydro-4H-1,3-oxazin-2-amine], the IC50 was 220 µM.

For `C#CCOC1CCN(C(=O)Nc2ccc(F)c([C@]3(C)C[C@@H](C(F)(F)F)OC(N)=N3)c2)CC1` [Example 120, N-(3-((4S,6S)-2-amino-4-methyl-6-(trifluoromethyl)-5,6-dihydro-4H-1,3-oxazin-4-yl)-4-fluorophenyl)-4-(prop-2-yn-1-yloxy)piperidine-1-carboxamide], the IC50 was more than 400 µM.

In the case of `C[C@@]1(c2cc(NC(=O)N3CCc4ccccc4C3)ccc2F)C[C@@H](C(F)(F)F)OC(N)=N1` [Example 121, N-(3-((4S,6S)-2-amino-4-methyl-6-(trifluoromethyl)-5,6-dihydro-4H-1,3-oxazin-4-yl)-4-fluorophenyl)-3,4-dihydroisoquinoline-2(1H)-carboxamide], the IC50 is 3610 µM.

As to `C[C@@]1(c2cc(NC(=O)N3CCC(C(F)F)CC3)ccc2F)C[C@@H](C(F)(F)F)OC(N)=N1` [Example 122, N-(3-((4S,6S)-2-amino-4-methyl-6-(trifluoromethyl)-5,6-dihydro-4H-1,3-oxazin-4-yl)-4-fluorophenyl)-4-(difluoromethyl)piperidine-1-carboxamide], the IC50 was more than 14.8 µM.

Take `C[C@@]1(c2cc(NC(=O)N3CC=C(C#CC4CC4)CC3)ccc2F)C[C@@H](C(F)(F)F)OC(N)=N1` [Example 124, N-(3-((4S,6S)-2-amino-4-methyl-6-(trifluoromethyl)-5,6-dihydro-4H-1,3-oxazin-4-yl)-4-fluorophenyl)-4-(cyclopropylethynyl)-5,6-dihydropyridine-1(2H)-carboxamide]: the IC50 was 810 µM.

The assay is the same for the next values; noted with them: average IC50; read-out: CatD IC50.
Regarding `N#Cc1ccc(C(=O)Nc2ccc(F)c([C@]3(CF)C[C@@H](C(F)(F)F)OC(N)=N3)c2)nc1` [Example 59, N-(3-((4S,6S)-2-amino-4-(fluoromethyl)-6-(trifluoromethyl)-5,6-dihydro-4H-1,3-oxazin-4-yl)-4-fluorophenyl)-5-cyanopicolinamide], the IC50 is more than 400 µM.

For the molecule `C[C@@]1(c2cc(NC(=O)c3ccc(C#N)cn3)cnc2F)C[C@@H](C(F)(F)F)OC(N)=N1` [Example 62, N-(5-((4S,6S)-2-amino-4-methyl-6-(trifluoromethyl)-5,6-dihydro-4H-1,3-oxazin-4-yl)-6-fluoropyridin-3-yl)-5-cyanopicolinamide], the IC50 was more than 400 µM.

With `COc1cnc(C(=O)Nc2cnc(F)c([C@]3(C)C[C@@H](C(F)(F)F)OC(N)=N3)c2)c(Cl)c1` [Example 69, N-(5-((4S,6S)-2-amino-4-methyl-6-(trifluoromethyl)-5,6-dihydro-4H-1,3-oxazin-4-yl)-6-fluoropyridin-3-yl)-3-chloro-5-methoxypicolinamide], the half-inhibitory concentration (IC50) was more than 400 µM.

On to `C[C@@]1(c2cc(Nc3ncc(F)c4cc(C#N)cnc34)cnc2F)C[C@@H](C(F)(F)F)OC(N)=N1` [Example 78, 8-((5-((4S,6S)-2-amino-4-methyl-6-(trifluoromethyl)-5,6-dihydro-4H-1,3-oxazin-4-yl)-6-fluoropyridin-3-yl)amino)-5-fluoro-1,7-naphthyridine-3-carbonitrile], for which the IC50 was more than 400 µM.

With `C[C@@]1(c2nc(NC(=O)c3ncc(C(F)(F)F)cc3Cl)ccc2F)C[C@@H](C(F)(F)F)OC(N)=N1` [Example 81, N-(6-((4S,6S)-2-amino-4-methyl-6-(trifluoromethyl)-5,6-dihydro-4H-1,3-oxazin-4-yl)-5-fluoropyridin-2-yl)-3-chloro-5-(trifluoromethyl)-picolinamide], the IC50 was more than 400 µM.

`C[C@@]1(c2nc(NC(=O)c3ncc(C#N)cc3Cl)ccc2F)C[C@@H](C(F)(F)F)OC(N)=N1` [Example 82, N-(6-((4S,6S)-2-amino-4-methyl-6-(trifluoromethyl)-5,6-dihydro-4H-1,3-oxazin-4-yl)-5-fluoropyridin-2-yl)-3-chloro-5-cyanopicolinamide]: the IC50 is more than 400 µM.

With `Cc1cc(C#N)cnc1C(=O)Nc1ccc(F)c([C@]2(C)C[C@@H](C(F)(F)F)OC(N)=N2)n1` [Example 84, N-(6-((4S,6S)-2-amino-4-methyl-6-(trifluoromethyl)-5,6-dihydro-4H-1,3-oxazin-4-yl)-5-fluoropyridin-2-yl)-5-cyano-3-methylpicolinamide], the IC50 was 900 µM.

In the case of `C[C@@]1(c2nc(NC(=O)c3ncc(Br)cc3Cl)ccc2F)C[C@@H](C(F)(F)F)OC(N)=N1` [Example 86, N-(6-((4S,6S)-2-amino-4-methyl-6-(trifluoromethyl)-5,6-dihydro-4H-1,3-oxazin-4-yl)-5-fluoropyridin-2-yl)-5-bromo-3-chloropicolinamide], the IC50 was 636 µM.

As to `C[C@@]1(c2nc(Nc3ncc(F)c4cc(C#N)cnc34)ccc2F)C[C@@H](C(F)(F)F)OC(N)=N1` [Example 89, 8-((6-((4S,6S)-2-amino-4-methyl-6-(trifluoromethyl)-5,6-dihydro-4H-1,3-oxazin-4-yl)-5-fluoropyridin-2-yl)amino)-5-fluoro-1,7-naphthyridine-3-carbonitrile], the IC50 amounted to 229 µM.

Take `NC1=N[C@](CF)(c2cc(Oc3ncccc3F)ccc2F)C[C@@H](C(F)(F)F)O1` [Example 94]: the 50% inhibitory concentration (IC50) was 2220 µM.

For the molecule `CNC(=O)c1ccnc(Oc2ccc(F)c([C@]3(CF)C[C@@H](C(F)(F)F)OC(N)=N3)c2)c1` [Example 96, 2-(3-((4S,6S)-2-amino-4-(fluoromethyl)-6-(trifluoromethyl)-5,6-dihydro-4H-1,3-oxazin-4-yl)-4-fluorophenoxy)-N-methylisonicotinamide], the IC50 is more than 400 µM.

As to `NC1=N[C@](CF)(c2cc(Oc3ncccc3Cl)ccc2F)C[C@@H](C(F)(F)F)O1` [Example 97, (4S,6S)-4-(5-((3-chloropyridin-2-yl)oxy)-2-fluorophenyl)-4-(fluoromethyl)-6-(trifluoromethyl)-5,6-dihydro-4H-1,3-oxazin-2-amine], the IC50 came out at 1010 µM.

As for `NC1=N[C@](CF)(c2cc(Oc3cc(C(F)(F)F)ccn3)ccc2F)C[C@@H](C(F)(F)F)O1` [Example 99, (4S,6S)-4-(2-Fluoro-5-((4-(trifluoromethyl)pyridin-2-yl)oxy)phenyl)-4-(fluoromethyl)-6-(trifluoromethyl)-5,6-dihydro-4H-1,3-oxazin-2-amine], the IC50 is more than 400 µM.

As for `N#Cc1cncc(-c2ccc(F)c([C@]3(CF)C[C@@H](C(F)(F)F)OC(N)=N3)c2)c1` [Example 103, 5-(3-((4S,6S)-2-amino-4-(fluoromethyl)-6-(trifluoromethyl)-5,6-dihydro-4H-1,3-oxazin-4-yl)-4-fluorophenyl)nicotinonitrile], the IC50 came to 129 µM.

For `COc1ccc(C(=O)Nc2cccc([C@]3(CF)C[C@@H](C(F)(F)F)OC(N)=N3)c2)nc1` [Example 145, N-(3-((4S,6S)-2-amino-4-(fluoromethyl)-6-(trifluoromethyl)-5,6-dihydro-4H-1,3-oxazin-4-yl)phenyl)-5-methoxypicolinamide], the IC50 came out at 3520 µM.

Staying with this assay, now noted: average; read-out: CatD IC50.
Take `C#CCOc1cnc(C(=O)Nc2cnc(F)c([C@]3(C)C[C@@H](C(F)(F)F)OC(N)=N3)c2)cn1` [Example 73, N-(5-((4S,6S)-2-amino-4-methyl-6-(trifluoromethyl)-5,6-dihydro-4H-1,3-oxazin-4-yl)-6-fluoropyridin-3-yl)-5-(prop-2-yn-1-yloxy)pyrazine-2-carboxamide]: the IC50 came to 1690 µM.

Consider `NC1=N[C@](CF)(c2cc(NC(=S)c3ccc(Cl)cn3)ccc2F)C[C@@H](C(F)(F)F)O1` [Example 91, N-(3-((4S,6S)-2-amino-4-(fluoromethyl)-6-(trifluoromethyl)-5,6-dihydro-4H-1,3-oxazin-4-yl)-4-fluorophenyl)-5-chloropyridine-2-carbothioamide], for which the IC50 was 805 µM.

For the molecule `NC1=N[C@](CF)(c2cc(C#Cc3ccc(OC(F)F)cn3)ccc2F)C[C@@H](C(F)(F)F)O1` [Example 127, (4S,6S)-4-(5-((5-(difluoromethoxy)pyridin-2-yl)ethynyl)-2-fluorophenyl)-4-(fluoromethyl)-6-(trifluoromethyl)-5,6-dihydro-4H-1,3-oxazin-2-amine], the IC50 came out at 605 µM.
